Data on one compound can be found in ChEMBL document CHEMBL5728673, “Substituted imidazopyridine compounds as inhibitors of indoleamine 2,3-dioxygenase and/or tryptophan-2,3-dioxygenase” (2021).

The target in test [1] is Indoleamine 2,3-dioxygenase 1 (Homo sapiens, UniProt P14902). Nature of the test: (§1) Biochemical Coupled Assay: Recombinant human IDO or TDO was incubated in 50 mM KPO4 (pH 7.0), 0.5 mM EGTA, 0.5 mM EDTA, 0.05% Triton™ X100, 20 mM ascorbate, 10 μM methylene blue, 500 U/ml catalase, 50 μg/ml KynB (kynurenine formamidase). TDO assays were carried out in the presence of 330 μM L-tryptophan, while IDO assays had the addition of 45 μM L-tryptophan. After incubation for 17 minutes at room temperature the reactions were stopped by the addition of Erhlich's reagent and incubated at room temperature for 5 minutes before the fluorescence was read.

Test [2] has as its target Tryptophan 2,3-dioxygenase (Homo sapiens, UniProt P48775). Described as §1.

Tryptophan 2,3-dioxygenase, sequence (P48775 whole entry): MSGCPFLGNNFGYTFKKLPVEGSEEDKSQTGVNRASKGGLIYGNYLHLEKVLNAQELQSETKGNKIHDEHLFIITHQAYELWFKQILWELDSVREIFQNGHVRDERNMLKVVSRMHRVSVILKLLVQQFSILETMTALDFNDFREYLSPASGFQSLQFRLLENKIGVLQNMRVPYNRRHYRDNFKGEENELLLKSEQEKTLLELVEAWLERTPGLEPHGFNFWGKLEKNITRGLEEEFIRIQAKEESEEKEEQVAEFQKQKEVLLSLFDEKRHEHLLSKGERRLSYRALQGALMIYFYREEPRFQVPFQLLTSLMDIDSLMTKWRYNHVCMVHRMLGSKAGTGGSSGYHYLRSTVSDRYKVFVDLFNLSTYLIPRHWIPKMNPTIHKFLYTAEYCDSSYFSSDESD
Indoleamine 2,3-dioxygenase 1, sequence (P14902 whole entry): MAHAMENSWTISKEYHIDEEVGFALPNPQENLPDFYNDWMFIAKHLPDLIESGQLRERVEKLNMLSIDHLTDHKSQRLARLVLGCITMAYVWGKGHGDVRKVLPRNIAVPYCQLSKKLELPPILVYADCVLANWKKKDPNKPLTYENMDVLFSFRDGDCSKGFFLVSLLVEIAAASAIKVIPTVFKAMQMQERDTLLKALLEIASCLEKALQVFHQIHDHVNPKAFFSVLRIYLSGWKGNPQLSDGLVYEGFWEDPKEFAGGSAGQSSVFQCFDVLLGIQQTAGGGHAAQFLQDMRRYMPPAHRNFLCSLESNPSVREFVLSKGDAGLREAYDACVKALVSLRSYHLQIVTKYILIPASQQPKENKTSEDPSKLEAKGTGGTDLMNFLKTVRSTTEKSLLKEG

`CC1(C)CN(c2cc(Cl)cc3cncn23)CCC12NC(=O)NC2=O` (configuration not stated): the values for the IC50 in test [1] and in test [2] were 148 nM and 1590 nM, respectively.
